Experimental data taken from ChEMBL document CHEMBL5537205, “Discovery of D25, a Potent and Selective MNK Inhibitor for Sepsis-Associated Acute Spleen Injury” (J Med Chem, 2024).
The source made the active and inactive calls. The rule behind the calls is not given here.

Key:
[1] = molecular target: MAP kinase-interacting serine/threonine-protein kinase 2 (Homo sapiens, UniProt Q9HBH9); test: Inhibition of MNK2 (unknown origin) at 1 uM relative to control
[2] = Half-life in Sprague-Dawley rat at 20 mg/kg, po measured after 48 hrs; assay type: ADME, organism-based; conditions: in vivo
Mus musculus [3] = test: Antiinflammatory activity in LPS-induced BALB/c sepsis mouse model assessed as decrease in serum TNF-alpha level at 20 mg/kg, po preadministered with compound for 14 days followed by LPS stimulation and measured after 6 hrs by ELISA; assay type: functional, organism-based; conditions: time 342.0 hrs
Mus musculus [4] = test: Antiinflammatory activity in LPS-induced BALB/c sepsis mouse model assessed as decrease in infiltration of macrophages in spleen at 10 to 20 mg/kg, po preadministered with compound for 14 days followed by LPS stimulation and measured after 6 hrs by immunohistochemistry analysis; assay type: functional, organism-based; conditions: dose 10-20 mg/kg, time 342.0 hrs
RAW264.7 [5] = test: Antiinflammatory activity against mouse RAW264.7 cells assessed as inhibition of LPS-NO production at 20 uM by Griess reagent based assay relative to control; assay type: functional
RAW264.7 [6] = test: Antiinflammatory activity against LPS-induced mouse RAW264.7 cells assessed as inhibition of phosphorylated eIF4E expression preincubated for 1 hrs followed by LPS stimulation and measured after 1 hrs by DAPI staining based immunofluorescence analysis; assay type: functional, cell-based; conditions: dose 5-20 µM, time 2.0 hrs
Mus musculus [7] = test: Antiinflammatory activity in LPS-induced BALB/c sepsis mouse model assessed as decrease in cell gap in spleen at 10 to 20 mg/kg, po preadministered with compound for 14 days followed by LPS stimulation and measured after 6 hrs by H&E staining based analysis; assay type: functional, organism-based; conditions: dose 10-20 mg/kg, time 342.0 hrs
Mus musculus [8] = test: Antiinflammatory activity in LPS-induced BALB/c sepsis mouse model assessed as decrease in serum IL-6 level at 20 mg/kg, po preadministered with compound for 14 days followed by LPS stimulation and measured after 6 hrs by ELISA; assay type: functional, organism-based; conditions: time 342.0 hrs
Mus musculus [9] = test: Antiinflammatory activity in LPS-induced BALB/c sepsis mouse model assessed as reversal of LPS-induced lung […] index at 20 mg/kg, po preadministered with compound for 14 days followed by LPS stimulation and measured after 6 hrs; assay type: functional, organism-based; conditions: time 342.0 hrs
[10] = Cmax in Sprague-Dawley rat at 5 mg/kg, iv measured after 48 hrs; assay type: ADME, organism-based; conditions: in vivo
Mus musculus [11] = test: Antiinflammatory activity in LPS-induced BALB/c sepsis mouse model assessed as increase in SOD level in serum at 20 mg/kg, po preadministered with compound for 14 days followed by LPS stimulation and measured after 6 hrs; assay type: functional, organism-based; conditions: time 342.0 hrs
[12] = Toxicity in BALB/c mouse assessed as change in body weight at 10 to 20 mg/kg, po administered for 14 days; assay type: organism-based; conditions: in vivo, 336 h, dose 10-20 mg/kg, time 14 day
RAW264.7 [13] = test: Antiinflammatory activity against LPS-induced mouse RAW264.7 cells assessed as decrease in COX-2 expression at 10 to 20 uM by Western blot analysis; assay type: functional, cell-based; conditions: dose 10-20 µM

Chain of MAP kinase-interacting serine/threonine-protein kinase 2 (Q9HBH9 whole entry, looked up): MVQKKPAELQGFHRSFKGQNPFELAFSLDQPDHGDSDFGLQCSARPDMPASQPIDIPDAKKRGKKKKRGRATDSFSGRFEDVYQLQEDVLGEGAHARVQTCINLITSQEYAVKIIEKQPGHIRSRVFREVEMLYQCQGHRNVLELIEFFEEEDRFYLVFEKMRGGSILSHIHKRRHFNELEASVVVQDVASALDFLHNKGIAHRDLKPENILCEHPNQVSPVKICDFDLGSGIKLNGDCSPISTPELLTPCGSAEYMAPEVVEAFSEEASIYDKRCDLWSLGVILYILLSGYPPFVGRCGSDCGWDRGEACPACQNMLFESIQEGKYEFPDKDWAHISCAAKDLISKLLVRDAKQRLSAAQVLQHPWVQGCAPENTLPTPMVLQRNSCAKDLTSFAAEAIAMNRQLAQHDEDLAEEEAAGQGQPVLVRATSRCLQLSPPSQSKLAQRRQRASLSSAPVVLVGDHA

inhibition [1]: 85.8%
half-life [2]: 200 min
Cmax [10]: 3580 ng/mL
Structure (SMILES): c1cc(-c2cc(C3CCNCC3)n[nH]2)c2cc[nH]c2n1
Activity (Mus musculus [3]): Active
Activity (Mus musculus [4]): Active
inhibition at 20 µM (RAW264.7 [5]): 70%
Activity (RAW264.7 [6]): Dose-Dependent Effect
Activity (Mus musculus [7]): Active
Activity (Mus musculus [8]): Active
Activity (Mus musculus [9]): Active
Activity (Mus musculus [11]): Active
Activity [12]: Non-Toxic
Activity (RAW264.7 [13]): Active
